Paper PMC8327158, “PEGylated AdipoRon derivatives improve glucose and lipid metabolism under insulinopenic and high-fat diet conditions” (Journal of Lipid Research, 2021)

Test system: HFD-fed wild-type mice
Assay: Sphingolipid levels in tissues and serum of HFD-fed mice by mass spectrometry
Assay type: in vivo, mouse
Conditions: average ± SD
Experimental: Six-week-old wild-type male mice were fed HFD for 4 weeks or 7 months In total, 5 mg/Kg of PBS, Adiporon, AdipoRonPEG5, AdipoRonPEG6HTL were injected twice a day for 5 days. After 5 days of treatment, systemic test is performed, and serum (Before and after treatment), subcutaneous, epididymal, liver, heart samples were harvested for qPCR and sphingolipid analysis.
Flash-frozen tissue samples (~40 mg) in a borosilicate glass tube were quenched with 2.0 ml of organic extraction solvent (isopropanol: ethyl acetate, 15:85; v:v) and homogenized with a mechanical tissue disruptor. Immediately afterward, 20 μl of organic internal standard solution was added (Ceramide/Sphingoid Internal Standard Mixture II diluted 1:10 in ethanol). The mixture was vortexed for 20 s and sonicated in ultrasonic bath for 40 min at 40°C. The organic extract was allowed to reach room temperature, and 1.5 ml of HPLC water was added and a two-phase liquid-liquid extraction was performed. The upper phase was transferred to a new clean tube, and the lower aqueous phase containing the protein pellet was re-extracted with additional 2.0 ml of organic extraction solvent. The organic phases were combined and dried under nitrogen stream at 40°C. Dried extracts were stored at –80°C until analysis. For analysis of ceramides and sphingoid base species, the dried residues were reconstituted in 200 μl of methanol. Sphingomyelins required a sample dilution of 1:50 in methanol prior to analysis. Serum sphingolipids were extracted using a similar methodology requiring 25 μl of serum.
Liver, subcutaneous adipose tissue, pancreas, pancreatic islets were initially homogenized in 500 μl of cold PBS using an ultrasonic probe disruptor and keeping the sample on ice during sonication. In total, 50 μl of aqueous homogenate was aliquoted for protein determination. In total, 400 μl of the lysate was immediately quenched in 2.0 ml of organic extraction solvent.
In total, 5 μl of reconstituted samples was injected into an LC/MS/MS system for the analysis of ceramides and sphingoid bases, and 1 μl injection was required for the analysis of sphingomyelins. The system consisted of a Shimadzu LCMS-8050 triple-quadrupole mass spectrometer with the dual ion source operating in electrospray positive ionization mode. The mass spectrometer is coupled to a Shimadzu Nexera X2 UHPLC system equipped with three solvent delivery modules LC-30AD, three degassing units DGU-20A5R, an autosampler SIL-30ACMP, and a column oven CTO-20AC operating at 40°C (Shimadzu Scientific Instruments, Columbia, MD). Six sphingoid bases (d18:1 sphingosine, d18:1 sphingosine-1-phosphate, d18:1 deoxysphingosine, d18:0 sphinganine, d18:0 sphinganine-1-phosphate, d18:0 deoxysphinganine) and […] ceramide species and their metabolites (C16:0, C16:0 dihydroceramide, C16:0 glucosylceramide, C16:0 lactosylceramide, C16:0 sphingomyelin, C18:0, C18:0 dihydroceramide, C18:0 glucosylceramide, C18:0 sphingomyelin, C18:1, C20:0, C22:0, C22:0 glucosylceramide, C24:0, C24:0 dihydroceramide, C24:0 lactosylceramide, C24:0 sphingomyelin, C24:1, C24:1 dihydroceramide, C24:1 glucosylceramide, C24:1 sphingomyelin). Quantitative analysis of sphingolipids was achieved using selective reaction monitoring scan mode. Lipid separation was achieved by reverse phase LC on a 2.1 (i.d.) × 150 mm Ascentis Express C8, 2.7 micron (Supelco, Bellefonte, PA) column under gradient elution, using three different mobile phases: eluent A consisting of methanol/water/formic acid, 600/400/0.8, v/v/v with 5 mM ammonium formate, eluent B consisting of methanol/formic acid, 1,000/0.8, v/v with 5 mM ammonium formate, and eluent C consisting of CH3OH/CH2Cl2 350/650. The concentration of each metabolite was determined according to calibration curves using the peak-area ratio of analyte versus corresponding internal standard. Calibration curves were generated using serial dilutions of each target analyte.

[1] = scWAT, 5 mg/kg twice a day 5 days
[2] = serum at day 0 (before treatment)
[3] = serum at day 5, 5 mg/kg twice a day 5 days

Compound: O=C(COc1ccc(C(=O)c2ccccc2)cc1)NC1CCN(Cc2ccccc2)CC1 [AdipoRon]
- Hexosyl 20:0 [1]: 615610.3 ± 235007.39 pg/mg
- Hexosyl 22:0 [1]: 6375434.2 ± 2782528.88 pg/mg
- Hexosyl 24:0 [1]: 21878746.0 ± 11579620.12 pg/mg
- Hexosyl 24:1 [1]: 11496554.3 ± 5647659.03 pg/mg
- Lactosyl 16:0 [1]: 45792.6 ± 45798.33 pg/mg
- Lactosyl 18:0 [1]: 0.0 ± 0.0 pg/mg
- Lactosyl 22:0 [1]: 49816.7 ± 23898.61 pg/mg
- Lactosyl 24:1 [1]: 86367.6 ± 22529.94 pg/mg
- Lactosyl C24:0 [1]: 55460.5 ± 33843.98 pg/mg
- Sphingaine1P [1]: 35443.6 ± 15686.23 pg/mg
- Sphinganine [1]: 29337.6 ± 16700.68 pg/mg
- Sphingosine [1]: 49182.2 ± 32181.22 pg/mg
- Sphingosine1P [1]: 37612.5 ± 17941.43 pg/mg
- dCer 16:0 [1]: 14580.7 ± 4393.04 pg/mg
- dCer 18:0 [1]: 17597.9 ± 5214.49 pg/mg
- dCer 20:0 [1]: 80869.1 ± 48824.3 pg/mg
- dCer 22:0 [1]: 84488 ± 14825 pg/mg
- dCer 24:0 [1]: 96632.5 ± 27938.2 pg/mg
- dCer 24:1 [1]: 93338.7 ± 29289.58 pg/mg
- Cer 14:0 [2]: 8402.0 ± 1707.95 pg/mg
- Cer 16:0 [2]: 25341.1 ± 4464.54 pg/mg
- Cer 18:0 [2]: 10061.4 ± 1406.12 pg/mg
- Cer 18:1 [2]: 0 pg/mg
- Cer 20:0 [2]: 144673.7 ± 32033.84 pg/mg
- Cer 22:0 [2]: 2303972.0 ± 309633.22 pg/mg
- Cer 24:0 [2]: 1443539.8 ± 157739.65 pg/mg
- Cer 24:1 [2]: 986691.7 ± 101968.89 pg/mg
- Cer 26:0 [2]: 10057.2 ± 2818.25 pg/mg
- Cer 26:1 [2]: 0 pg/mg
- DeoxySphinganie [2]: 0.0 ± 0.0 pg/mg
- Deoxysphingosine [2]: 0.0 ± 0.0 pg/mg
- Hexosyl 14:0 [2]: 2960.2 ± 601.74 pg/mg
- Hexosyl 16:0 [2]: 3024488.2 ± 155463.13 pg/mg
- Hexosyl 18:0 [2]: 47892.4 ± 4333.97 pg/mg
- Hexosyl 20:0 [2]: 182974.2 ± 30498.44 pg/mg
- Hexosyl 22:0 [2]: 12192915.9 ± 1475247.57 pg/mg
- Hexosyl 24:0 [2]: 1341147.2 ± 57498.17 pg/mg
- Hexosyl 24:1 [2]: 3535698.6 ± 346272.3 pg/mg
- Lactosyl 16:0 [2]: 94073.6 ± 8945.71 pg/mg
- Lactosyl 18:0 [2]: 0.0 ± 0.0 pg/mg
- Lactosyl 22:0 [2]: 60785.8 ± 9718.01 pg/mg
- Lactosyl 24:1 [2]: 85880.2 ± 22412.15 pg/mg
- Lactosyl C24:0 [2]: 103502.4 ± 17366.51 pg/mg
- Sphingaine1P [2]: 250934.3 ± 36218.42 pg/mg
- Sphinganine [2]: 45226.5 ± 8665.07 pg/mg
- Sphingosine [2]: 43193.4 ± 8183.0 pg/mg
- Sphingosine1P [2]: 774207.2 ± 25661.64 pg/mg
- dCer 16:0 [2]: 16437.5 ± 2669.42 pg/mg
- dCer 18:0 [2]: 10213.1 ± 2375.68 pg/mg
- dCer 20:0 [2]: 3716.7 ± 0.0 pg/mg
- dCer 22:0 [2]: 335078.3 ± 58715.16 pg/mg
- dCer 24:0 [2]: 212159.3 ± 42613.52 pg/mg
- dCer 24:1 [2]: 111963.9 ± 12779.64 pg/mg
- Cer 14:0 [3]: 9165.8 ± 853.97 pg/mg
- Cer 16:0 [3]: 17212.8 ± 1488.18 pg/mg
- Cer 18:0 [3]: 8049.1 ± 1033.29 pg/mg
- Cer 18:1 [3]: 0 pg/mg
- Cer 20:0 [3]: 135037.6 ± 17909.21 pg/mg
- Cer 22:0 [3]: 1736100.3 ± 185474.31 pg/mg
- Cer 24:0 [3]: 1412623.3 ± 289722.52 pg/mg
- Cer 24:1 [3]: 771667.5 ± 65564.62 pg/mg
- Cer 26:0 [3]: 11959.9 ± 2614.25 pg/mg
- Cer 26:1 [3]: 0 pg/mg
- DeoxySphinganie [3]: 0.0 ± 0.0 pg/mg
- Deoxysphingosine [3]: 0.0 ± 0.0 pg/mg
- Hexosyl 14:0 [3]: 2960.2 ± 601.74 pg/mg
- Hexosyl 16:0 [3]: 3736352.2 ± 191696.45 pg/mg
- Hexosyl 18:0 [3]: 63748.7 ± 18002.6 pg/mg
- Hexosyl 20:0 [3]: 245486.5 ± 74132.09 pg/mg
- Hexosyl 22:0 [3]: 9390882.1 ± 688490.25 pg/mg
- Hexosyl 24:0 [3]: 1430423.2 ± 157556.06 pg/mg
- Hexosyl 24:1 [3]: 3036231.9 ± 367214.43 pg/mg
- Lactosyl 16:0 [3]: 94265.2 ± 16983.56 pg/mg
- Lactosyl 18:0 [3]: 0.0 ± 0.0 pg/mg
- Lactosyl 22:0 [3]: 58253.0 ± 5503.82 pg/mg
- Lactosyl 24:1 [3]: 124049.2 ± 19300.14 pg/mg
- Lactosyl C24:0 [3]: 122340.7 ± 11760.71 pg/mg
- Sphingaine1P [3]: 423112.6 ± 48511.44 pg/mg
- Sphinganine [3]: 11725.4 ± 1939.02 pg/mg
- Sphingosine [3]: 18235.7 ± 1946.06 pg/mg
- Sphingosine1P [3]: 1139765.2 ± 69403.83 pg/mg
- dCer 16:0 [3]: 7198.9 ± 1199.82 pg/mg
- dCer 18:0 [3]: 4034.8 ± 845.83 pg/mg
- dCer 20:0 [3]: 2973.3 ± 1017.85 pg/mg
- dCer 22:0 [3]: 174957.8 ± 18878.67 pg/mg
- dCer 24:0 [3]: 105210.1 ± 6589.37 pg/mg
- dCer 24:1 [3]: 49553.1 ± 7051.68 pg/mg
